This passage reports IC50 results from US20240269298A1, “PHOSPHONYL DERIVATIVE, AND COMPOSITION AND PHARMACEUTICAL APPLICATION THEREOF” (XIZANG HAISCO PHARMACEUTICAL CO., LTD., priority 2021, published 2024).

The test system of this assay is NCI-H1975 (EGFR-L858R-T790M) cells. Kind of assay: Inhibitory activity on proliferation of NCI-H1975 (EGFR-L858R-T790M) cells (CTG, 72 h). The class given is cell-based. Particulars: Homo sapiens. As for the experimental part:
NCI-H1975 (EGFR-L858R-T790M) and A431 (EGFR-WT) cells were purchased from ATCC and cultured in an incubator at 37° C. with 5% CO2, and the culture mediums were RPMI1640+10% FBS and DMEM+10% FBS, respectively. On the first day, NCI-H1975 (EGFR-L858R-T790M) and A431 (EGFR-WT) cells in the logarithmic phase were collected, and viable cells were counted using an automatic cell analyzer (countstar). The cell suspensions were adjusted with the culture mediums and plated on a 96-well cell culture plate at 1000 cells/well for NCI-H1975 (EGFR-L858R-T790M) cells and at 3000 cells/well for A431 cells. The next day, the culture mediums were aspirated, and 90 μL of fresh culture mediums and 10 μL of the compounds at different concentrations were added to each well, wherein the final concentration of DMSO in each well was 0.1%. The plate was cultured in the incubator at 37° C. with 5% CO2 for 72 hours. After 72 hours of drug treatment, 50 μL of CTG solution (promega, G7572), which was already pre-melted and equilibrated to room temperature, was added to each well, and the mixtures were uniformly mixed for 2 min using a microplate shaker. The plate was placed at room temperature for 10 min, and then […] signal values were measured using a microplate reader (PHERAstar FSX).
Surviving cells % was calculated based on Vsample/Vvehicle control×100%, wherein Vsample was the readout of the drug-treated group, and Vvehicle control was the average value of the vehicle control group. Using the origin 9.2 software and nonlinear regression model, S-shaped dose-survival curves were plotted, and IC50 values were calculated.

[1] abbreviates: read-out: IC50 (value in brackets).

pIC50: −log10 of the molar value. Read-outs that look alike come from different tables or passages of the source. Some results are limits rather than exact numbers.

A word on the pIC50: it is −log10 of the IC50, conventionally taken in molar units. Consider `COc1cc(N2CCC(N3CCC(CN4CCC5(CCCN(c6ccc7c(c6)C(=O)N(C6CCC(=O)NC6=O)C7=O)C5)CC4)CC3)CC2)c(-c2cnn(C)c2)cc1Nc1ncc(Cl)c(Nc2ccc3nccnc3c2P(C)(C)=O)n1` (stereo not drawn) [Compound 16, 5-(9-((1′-(4-((5-chloro-4-((5-(dimethylphosphoryl)quinoxalin-6-yl)amino)pyrimidin-2-yl)amino)-5-methoxy-2-(1-methyl-1H-pyrazol-4-yl)phenyl)-[1,4′-bipiperidin]-4-yl)methyl)-2,9-diazaspiro[5.5]undecan-2-yl)-2-(2,6-dioxopiperidin-3-yl)isoindoline-1,3-dione], for which the pIC50 is, setting by setting: (read-out: IC50 (class symbol)) > 7.00; under setting [1], 7.14.

With `COc1cc(N2CCC(N3CCC(CN4CCCC5(CCN(c6ccc7c(c6)C(=O)N(C6CCC(=O)NC6=O)C7=O)CC5)C4)CC3)CC2)c(-c2cnn(C)c2)cc1Nc1ncc(Cl)c(Nc2ccc3nccnc3c2P(C)(C)=O)n1` (stereo not drawn) [Compound 17, 5-(2-((1′-(4-((5-chloro-4-((5-(dimethylphosphoryl)quinoxalin-6-yl)amino)pyrimidin-2-yl)amino)-5-methoxy-2-(1-methyl-1H-pyrazol-4-yl)phenyl)-[1,4′-bipiperidin]-4-yl)methyl)-2,9-diazaspiro[5.5]undecan-9-yl)-2-(2,6-dioxopiperidin-3-yl)isoindoline-1,3-dione], where the note is “read-out: IC50 (class symbol)”, the pIC50 was 6.30 to 7.00.

As for `COc1cc(N2CCC3(CCN(CC4CCN(c5cc6c(cc5F)C(=O)N(C5CCC(=O)NC5=O)C6=O)CC4)CC3)CC2)c(-c2cnn(C)c2)cc1Nc1ncc(Br)c(Nc2ccc3nccnc3c2P(C)(C)=O)n1` (stereo not drawn) [Compound 21, 5-(4-((9-(4-((5-bromo-4-((5-(dimethylphosphoryl)quinoxalin-6-yl)amino)pyrimidin-2-yl)amino)-5-methoxy-2-(1-methyl-1H-pyrazol-4-yl)phenyl)-3,9-diazaspiro[5.5]undecan-3-yl)methyl)piperidin-1-yl)-2-(2,6-dioxopiperidin-3-yl)-6-fluoroisoindoline-1,3-dione], the pIC50 reads like this: (read-out: IC50 (class symbol)) > 7.00; under setting [1], 7.41.

Turning to `COc1cc(N2CCN(C3CCN(CC4CCN(c5ccc6c(c5)C(=O)N(C5CCC(=O)NC5=O)C6=O)CC4)CC3)CC2)c(C2CC2)cc1Nc1ncc(Cl)c(Nc2ccc3nccnc3c2P(C)(C)=O)n1` (stereo not drawn) [Compound 26, 5-(4-((4-(4-(4-((5-chloro-4-((5-(dimethylphosphoryl)quinoxalin-6-yl)amino)pyrimidin-2-yl)amino)-2-cyclopropyl-5-methoxyphenyl)piperazin-1-yl)piperidin-1-yl)methyl)piperidin-1-yl)-2-(2,6-dioxopiperidin-3-yl)isoindoline-1,3-dione], under “read-out: IC50 (class symbol)”, the pIC50 was 6.30 to 7.00.

On to `COc1cc(N2CCC3(CCN(CC4CCN(c5cc6c(cc5F)C(=O)N(C5CCC(=O)NC5=O)C6=O)CC4)CC3)CC2)c(-c2cnn(C)c2)cc1Nc1ncc(Cl)c(Nc2ccc3nccnc3c2P(C)(C)=O)n1` (stereo not drawn) [Compound 27, 5-(4-((9-(4-((5-chloro-4-((5-(dimethylphosphoryl)quinoxalin-6-yl)amino)pyrimidin-2-yl)amino)-5-methoxy-2-(1-methyl-1H-pyrazol-4-yl)phenyl)-3,9-diazaspiro[5.5]undecan-3-yl)methyl)piperidin-1-yl)-2-(2,6-dioxopiperidin-3-yl)-6-fluoroisoindoline-1,3-dione], for which the pIC50 is, setting by setting: (read-out: IC50 (class symbol)) > 7.00; under setting [1], 7.70.

Consider `COc1cc(N2CCC(N3CCC4(CCCN(c5cc6c(cc5F)C(=O)N(C5CCC(=O)NC5=O)C6=O)C4)CC3)CC2)c(-c2cnn(C)c2)cc1Nc1ncc(Cl)c(Nc2ccc3nccnc3c2P(C)(C)=O)n1` (stereo not drawn) [Compound 28, 5-(9-(1-(4-((5-chloro-4-((5-(dimethylphosphoryl)quinoxalin-6-yl)amino)pyrimidin-2-yl)amino)-5-methoxy-2-(1-methyl-1H-pyrazol-4-yl)phenyl)piperidin-4-yl)-2,9-diazaspiro[5.5]undecan-2-yl)-2-(2,6-dioxopiperidin-3-yl)-6-fluoroisoindoline-1,3-dione], for which the pIC50 was > 7.00 (read-out: IC50 (class symbol)) and 7.48 under setting [1].

For the compound `COc1cc(N2CCC(N3CCN(CC4CCN(c5cc6c(cc5F)C(=O)N(C5CCC(=O)NC5=O)C6=O)CC4)CC3)CC2)c(-c2cnn(C)c2)cc1Nc1ncc(Br)c(Nc2ccc3nccnc3c2P(C)(C)=O)n1` (stereo not drawn) [Compound 29, 5-(4-((4-(1-(4-((5-bromo-4-((5-(dimethylphosphoryl)quinoxalin-6-yl)amino)pyrimidin-2-yl)amino)-5-methoxy-2-(1-methyl-1H-pyrazol-4-yl)phenyl)piperidin-4-yl)piperazin-1-yl)methyl)piperidin-1-yl)-2-(2,6-dioxopiperidin-3-yl)-6-fluoroisoindoline-1,3-dione], the pIC50 runs as follows: (read-out: IC50 (class symbol)) > 7.00; under setting [1], 7.48.

Turning to `COc1cc(N2CCN(C3CCN(CC4CCN(c5ccc6c(c5)C(=O)N(C5CCC(=O)NC5=O)C6=O)CC4)CC3)CC2)c(-c2cnn(C)c2)cc1Nc1ncc(Br)c(Nc2ccc3nccnc3c2P(C)(C)=O)n1` (stereo not drawn) [Compound 31, 5-(4-((4-(4-(4-((5-bromo-4-((5-(dimethylphosphoryl)quinoxalin-6-yl)amino)pyrimidin-2-yl)amino)-5-methoxy-2-(1-methyl-1H-pyrazol-4-yl)phenyl)piperazin-1-yl)piperidin-1-yl)methyl)piperidin-1-yl)-2-(2,6-dioxopiperidin-3-yl)isoindoline-1,3-dione], the pIC50 was > 7.00 (read-out: IC50 (class symbol)) and 7.82 under setting [1].

As for `COc1cc(N2CCC(N3CCC4(CCCN(c5ccc6c(c5)C(=O)N(C5CCC(=O)NC5=O)C6=O)C4)CC3)CC2)c(-c2cnn(C)c2)cc1Nc1ncc(Br)c(Nc2ccc3nccnc3c2P(C)(C)=O)n1` (stereo not drawn) [Compound 32, 5-(9-(1-(4-((5-bromo-4-((5-(dimethylphosphoryl)quinoxalin-6-yl)amino)pyrimidin-2-yl)amino)-5-methoxy-2-(1-methyl-1H-pyrazol-4-yl)phenyl)piperidin-4-yl)-2,9-diazaspiro[5.5]undecan-2-yl)-2-(2,6-dioxopiperidin-3-yl)isoindoline-1,3-dione], the pIC50 by setting is: (read-out: IC50 (class symbol)) > 7.00; under setting [1], 8.00.

Consider `COc1cc(N2CCC(N3CCC4(CCCN(c5cc6c(cc5F)C(=O)N(C5CCC(=O)NC5=O)C6=O)C4)CC3)CC2)c(-c2cnn(C)c2)cc1Nc1ncc(Br)c(Nc2ccc3nccnc3c2P(C)(C)=O)n1` (stereo not drawn) [Compound 33, 5-(9-(1-(4-((5-bromo-4-((5-(dimethylphosphoryl)quinoxalin-6-yl)amino)pyrimidin-2-yl)amino)-5-methoxy-2-(1-methyl-1H-pyrazol-4-yl)phenyl)piperidin-4-yl)-2,9-diazaspiro[5.5]undecan-2-yl)-2-(2,6-dioxopiperidin-3-yl)-6-fluoroisoindoline-1,3-dione], for which the pIC50 is > 7.00 (read-out: IC50 (class symbol)) and 7.55 under setting [1].

As to `COc1cc(N2CCC(N3CCC(CN4CCN(c5ccc6c(c5)C(=O)N(C5CCC(=O)NC5=O)C6=O)CC4)CC3)CC2)c(-c2cnn(C)c2)cc1Nc1ncc(Br)c(Nc2ccc(-c3ccccc3)cc2P(C)(C)=O)n1` (stereo not drawn) [Compound 43, 5-(4-((1′-(4-((5-bromo-4-((3-(dimethylphosphoryl)-[1,1′-biphenyl]-4-yl)amino)pyrimidin-2-yl)amino)-5-methoxy-2-(1-methyl-1H-pyrazol-4-yl)phenyl)-[1,4′-bipiperidin]-4-yl)methyl)piperazin-1-yl)-2-(2,6-dioxopiperidin-3-yl)isoindoline-1,3-dione], the pIC50 (read-out: IC50 (class symbol)) is > 7.00 and the pIC50 under setting [1] was 7.10.

For the compound `COc1cc(N2CCC(CN3CCCC4(CCN(c5ccc6c(c5)C(=O)N(C5CCC(=O)NC5=O)C6=O)CC4)C3)CC2)c(-c2cnn(C)c2)cc1Nc1ncc(Br)c(Nc2ccc(-c3ccccc3)cc2P(C)(C)=O)n1` (stereo not drawn) [Compound 44, 5-(2-((1-(4-((5-bromo-4-((3-(dimethylphosphoryl)-[1,1′-biphenyl]-4-yl)amino)pyrimidin-2-yl)amino)-5-methoxy-2-(1-methyl-1H-pyrazol-4-yl)phenyl)piperidin-4-yl)methyl)-2,9-diazaspiro[5.5]undecan-9-yl)-2-(2,6-dioxopiperidin-3-yl)isoindoline-1,3-dione], the pIC50 was 6.30 to 7.00 (read-out: IC50 (class symbol)) and 6.52 under setting [1].

Regarding `COc1cc(N2CCC(CN3CCCC4(CCN(c5ccc6c(c5)C(=O)N(C5CCC(=O)NC5=O)C6=O)CC4)C3)CC2)c(-c2cnn(C)c2)cc1Nc1ncc(Cl)c(Nc2ccc(-c3ccccc3)cc2P(C)(C)=O)n1` (stereo not drawn) [Compound 49, 5-(2-((1-(4-((5-chloro-4-((3-(dimethylphosphoryl)-[1,1′-biphenyl]-4-yl)amino)pyrimidin-2-yl)amino)-5-methoxy-2-(1-methyl-1H-pyrazol-4-yl)phenyl)piperidin-4-yl)methyl)-2,9-diazaspiro[5.5]undecan-9-yl)-2-(2,6-dioxopiperidin-3-yl)isoindoline-1,3-dione], the pIC50 was 6.30 to 7.00 (read-out: IC50 (class symbol)) and 6.58 under setting [1].
